Earlier results in patent publication US20210023011A1, “METHOD AND SYSTEM FOR PRODUCING HIGH PURITY VANCOMYCIN HYDROCHLORIDE” (ZHEJIANG MEDICINE CO., LTD, priority 2013, published 2021).
Counter-ions that a name gives are not always drawn.

What was measured:
[1] = lyophilized powder

## CN[C@H](CC(C)C)C(=O)N[C@H]1C(=O)N[C@@H](CC(N)=O)C(=O)N[C@H]2C(=O)N[C@H]3C(=O)N[C@H](C(=O)N[C@H](C(=O)O)c4cc(O)cc(O)c4-c4cc3ccc4O)[C@H](O)c3ccc(c(Cl)c3)Oc3cc2cc(c3O[C@@H]2O[C@H](CO)[C@@H](O)[C@H](O)[C@H]2O[C@H]2C[C@](C)(N)[C@H](O)[C@H](C)O2)Oc2ccc(cc2Cl)[C@H]1O [vancomycin hydrochloride, Vancomycin hydrochloride]
Lyophilization at low temperature
  decrease of chromatographic purity: ≥ 0.5%
Vacuum drying at 40° C. within 8 hours
  decrease of purity level of the solution: more than 1.0%
[1]
  solubility in alcohol: slightly soluble
  solubility in water: freely soluble
